# Measured values from PubChem BioAssay AID256 (DTP/NCI, 2004).
# Toxic doses and inconclusive results are not listed.
# System: CD2F1 mice, L1210 leukemia ip, survival T/C
# Assay: NCI In Vivo Anticancer Drug Screen. Data for tumor model L1210 Leukemia (intraperitoneal) in CD2F1 (CDF1) mice
# Settings: higher = longer survival
# Method in brief: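 Vehicle-treated tumor-bearing mice served as controls (C) for compound-treated mice (T). Reported figure is T divided by C.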
# [1] = endpoint: mean survival time, dose: 50.0 mg/kg/injection, schedule: Q01DX009 (ip), vehicle: saline with Tween-80
# [2] = endpoint: mean survival time, dose: 100.0 mg/kg/injection, schedule: Q01DX009 (ip), vehicle: saline with Tween-80
# [3] = endpoint: mean survival time, dose: 100.0 mg/kg/injection, schedule: Q04DX003 (ip), vehicle: saline with Tween-80
# [4] = endpoint: mean survival time, dose: 200.0 mg/kg/injection, schedule: Q01DX009 (ip), vehicle: saline with Tween-80
# [5] = endpoint: mean survival time, dose: 200.0 mg/kg/injection, schedule: Q04DX003 (ip), vehicle: saline with Tween-80
# [6] = endpoint: mean survival time, dose: 100.0 mg/kg/injection, schedule: Q04DX003 (ip), vehicle: saline
# [7] = endpoint: mean survival time, dose: 4.7 mg/kg/injection, schedule: Q04DX003 (ip), vehicle: saline
# [8] = endpoint: mean survival time, dose: 9.4 mg/kg/injection, schedule: Q04DX003 (ip), vehicle: saline
# [9] = endpoint: mean survival time, dose: 100.0 mg/kg/injection, schedule: Q01DX001 (ip), vehicle: saline with Tween-80
# [10] = endpoint: mean survival time, dose: 400.0 mg/kg/injection, schedule: Q01DX009 (ip), vehicle: saline with Tween-80
# [11] = endpoint: mean survival time, dose: 25.0 mg/kg/injection, schedule: Q04DX002 (ip), vehicle: saline with Tween-80
# [12] = endpoint: mean survival time, dose: 50.0 mg/kg/injection, schedule: Q04DX002 (ip), vehicle: saline with Tween-80
# [13] = endpoint: mean survival time, dose: 100.0 mg/kg/injection, schedule: Q04DX002 (ip), vehicle: saline with Tween-80
# [14] = endpoint: mean survival time, dose: 25.0 mg/kg/injection, schedule: Q01DX009 (ip), vehicle: saline with Tween-80
# [15] = endpoint: mean survival time, dose: 400.0 mg/kg/injection, schedule: Q04DX003 (ip), vehicle: saline with Tween-80
# [16] = endpoint: mean survival time, dose: 12.5 mg/kg/injection, schedule: Q01DX009 (ip), vehicle: saline with Tween-80
# [17] = endpoint: mean survival time, dose: 100.0 mg/kg/injection, schedule: Q01DX009 (ip), vehicle: saline
# [18] = endpoint: mean survival time, dose: 200.0 mg/kg/injection, schedule: Q01DX009 (ip), vehicle: saline
# [19] = endpoint: mean survival time, dose: 400.0 mg/kg/injection, schedule: Q01DX009 (ip), vehicle: saline
# [20] = endpoint: mean survival time, dose: 200.0 mg/kg/injection, schedule: Q01DX001 (ip), vehicle: saline with Tween-80
# [21] = endpoint: mean survival time, dose: 200.0 mg/kg/injection, schedule: Q04DX002 (ip), vehicle: saline with Tween-80
# [22] = endpoint: mean survival time, dose: 400.0 mg/kg/injection, schedule: Q04DX002 (ip), vehicle: saline with Tween-80
compound,measurement,setting,value
CCCCCCCCCCCCCCCC(=O)N1CCC(N2CCCCC2)CC1,T/C,[1],95 % of control
same,T/C,[2],97 % of control
same,T/C,[3],92 % of control
same,T/C,[4],92 % of control
same,T/C,[5],88 % of control
O=S(=O)(Nc1c(Cl)c(Cl)c(NS(=O)(=O)c2ccccc2)c(Cl)c1Cl)c1ccccc1,T/C,"endpoint: mean survival time, dose: 100.0 mg/kg/injection, schedule: Q04DX003 (ip), vehicle: Klucel (hydroxypropylcellulose) (HPC)",98 % of control
same,T/C,"endpoint: mean survival time, dose: 200.0 mg/kg/injection, schedule: Q04DX003 (ip), vehicle: Klucel (hydroxypropylcellulose) (HPC)",91 % of control
same,T/C,"endpoint: mean survival time, dose: 400.0 mg/kg/injection, schedule: Q04DX003 (ip), vehicle: Klucel (hydroxypropylcellulose) (HPC)",103 % of control
CC(C(=O)c1ccccc1)N(C)c1ccccc1 (configuration not stated),T/C,[6],107 % of control
same,T/C,"endpoint: mean survival time, dose: 200.0 mg/kg/injection, schedule: Q04DX003 (ip), vehicle: saline",100 % of control
same,T/C,"endpoint: mean survival time, dose: 400.0 mg/kg/injection, schedule: Q04DX003 (ip), vehicle: saline",102 % of control
Cc1cc(C)c([S-])c(C)c1.[Cu+],T/C,[7],94 % of control
same,T/C,[8],94 % of control
CC1CC1Cc1ccccc1 (configuration not stated),T/C,[9],86 % of control
C=CCCCCCCCCC(=O)NCCCC(OCC)OCC,T/C,[2],100 % of control
same,T/C,[4],100 % of control
same,T/C,[10],98 % of control
CCOc1ccc(OCC)c(NC(=O)Nc2cccc(Cl)c2)c1,T/C,[11],92 % of control
same,T/C,[12],92 % of control
same,T/C,[13],88 % of control
CN(C)C(=O)Nc1cccc(OS(=O)(=O)N(C)C)c1,T/C,[3],99 % of control
same,T/C,[5],96 % of control
NNC(=O)COc1ccc(Cl)cc1Cl,T/C,[14],102 % of control
same,T/C,[1],105 % of control
same,T/C,[2],104 % of control
O=C1CCN2CCc3c([nH]c4ccccc34)C2C1 (configuration not stated),T/C,[3],101 % of control
same,T/C,[5],101 % of control
same,T/C,[15],109 % of control
c1ccc2nc(NCCSSCCNc3cnc4ccccc4n3)cnc2c1,T/C,"endpoint: mean survival time, dose: 100.0 mg/kg/injection, schedule: Q01DX009 (ip), vehicle: saline sonified",92 % of control
same,T/C,[3],94 % of control
same,T/C,"endpoint: mean survival time, dose: 200.0 mg/kg/injection, schedule: Q01DX009 (ip), vehicle: saline sonified",93 % of control
same,T/C,[5],101 % of control
same,T/C,"endpoint: mean survival time, dose: 400.0 mg/kg/injection, schedule: Q01DX009 (ip), vehicle: saline sonified",87 % of control
same,T/C,[15],96 % of control
CC1C=CC(C)c2c(-c3ccccc3)oc(-c3ccccc3)c21 (configuration not stated),T/C,[2],88 % of control
same,T/C,[3],100 % of control
same,T/C,[4],86 % of control
same,T/C,[5],97 % of control
same,T/C,[10],91 % of control
same,T/C,[15],96 % of control
c1ccc(CC23CCCCC2N3)cc1 (configuration not stated),T/C,"endpoint: mean survival time, dose: 100.0 mg/kg/injection, schedule: Q01DX001 (ip), vehicle: saline sonified",96 % of control
same,T/C,"endpoint: mean survival time, dose: 200.0 mg/kg/injection, schedule: Q01DX001 (ip), vehicle: saline sonified",94 % of control
CC1=CCC2C(=O)NC(=O)C2C1 (configuration not stated),T/C,[1],96 % of control
same,T/C,[2],104 % of control
same,T/C,[4],104 % of control
COc1cnnc2ccccc12,T/C,[3],104 % of control
same,T/C,[5],103 % of control
same,T/C,[15],92 % of control
[CH3][Sb]([CH3])([CH3])([O]C(=O)CBr)[O]C(=O)CBr,T/C,[16],102 % of control
same,T/C,[14],100 % of control
same,T/C,[1],96 % of control
COc1cc(/C=C/C(=O)O)ccc1OC(C)=O,T/C,[17],98 % of control
same,T/C,[18],100 % of control
same,T/C,[19],93 % of control
C[N+](C)(C)C.[Cl-].[Cl-].[Cl][Sn]([Cl])[Cl].[Cl][Sn]([Cl])[Cl].[Ru+],T/C,[11],107 % of control
same,T/C,[12],96 % of control
[Cl][Sb]([c]1ccccc1)([c]1ccccc1)([c]1ccccc1)[c]1ccccc1,T/C,[7],98 % of control
same,T/C,[8],102 % of control
CCOC(=O)CSCC(=O)C(C)(C)C,T/C,[9],98 % of control
same,T/C,[20],98 % of control
same,T/C,"endpoint: mean survival time, dose: 400.0 mg/kg/injection, schedule: Q01DX001 (ip), vehicle: saline with Tween-80",102 % of control
COc1cc2c(cc1OC)C(Cc1ccccc1[N+](=O)[O-])=NCC2,T/C,"endpoint: mean survival time, dose: 100.0 mg/kg/injection, schedule: Q01DX001 (ip), vehicle: saline",101 % of control
same,T/C,"endpoint: mean survival time, dose: 200.0 mg/kg/injection, schedule: Q01DX001 (ip), vehicle: saline",94 % of control
same,T/C,"endpoint: mean survival time, dose: 400.0 mg/kg/injection, schedule: Q01DX001 (ip), vehicle: saline",95 % of control
CCCCCCCCCCSC(=N)N,T/C,"endpoint: mean survival time, dose: 6.25 mg/kg/injection, schedule: Q01DX001 (ip), vehicle: Klucel (hydroxypropylcellulose) (HPC)",102 % of control
same,T/C,"endpoint: mean survival time, dose: 12.5 mg/kg/injection, schedule: Q01DX001 (ip), vehicle: Klucel (hydroxypropylcellulose) (HPC)",112 % of control
same,T/C,"endpoint: mean survival time, dose: 25.0 mg/kg/injection, schedule: Q01DX001 (ip), vehicle: Klucel (hydroxypropylcellulose) (HPC)",96 % of control
CC(=O)Nc1cccc(C[P+](c2ccccc2)(c2ccccc2)c2ccccc2)c1,T/C,[3],92 % of control
same,T/C,[5],92 % of control
CN1CCCC1CN1c2ccccc2Sc2ccccc21 (configuration not stated),T/C,[6],102 % of control
COc1ccc([N+](=O)[O-])cc1NC(=O)Nc1ccccc1Cl,T/C,[13],86 % of control
same,T/C,[21],93 % of control
same,T/C,[22],104 % of control
Cc1cc(=O)[nH][nH]c1=O,T/C,[2],104 % of control
same,T/C,[4],97 % of control
same,T/C,[10],101 % of control
COc1cc(NC(=O)Nc2ccc(S(N)(=O)=O)cc2)c(Cl)c(OC)c1,T/C,[2],95 % of control
same,T/C,[4],95 % of control
same,T/C,[10],104 % of control
CC(=O)OCc1cccnc1,T/C,[17],96 % of control
same,T/C,[18],94 % of control
same,T/C,[19],86 % of control
O=c1[nH]cnc2n[nH]c(Br)c12,T/C,"endpoint: median survival time, dose: 50.0 mg/kg/injection, schedule: Q01DX005 (ip), vehicle: saline with Tween-80",107 % of control
same,T/C,"endpoint: median survival time, dose: 100.0 mg/kg/injection, schedule: Q01DX005 (ip), vehicle: saline with Tween-80",111 % of control
same,T/C,"endpoint: median survival time, dose: 200.0 mg/kg/injection, schedule: Q01DX005 (ip), vehicle: saline with Tween-80",119 % of control
C=CCCCCCCCCC(=O)NCCCN1CCOCC1,T/C,[9],91 % of control
same,T/C,[20],86 % of control
CCC12NC(=O)NC1(C)NC(=O)N2 (configuration not stated),T/C,"endpoint: mean survival time, dose: 6.25 mg/kg/injection, schedule: Q01DX009 (ip), vehicle: saline with Tween-80",95 % of control
same,T/C,"endpoint: mean survival time, dose: 6.25 mg/kg/injection, schedule: Q04DX003 (ip), vehicle: saline with Tween-80",102 % of control
same,T/C,[16],95 % of control
same,T/C,"endpoint: mean survival time, dose: 12.5 mg/kg/injection, schedule: Q04DX003 (ip), vehicle: saline with Tween-80",106 % of control
same,T/C,[14],93 % of control
same,T/C,"endpoint: mean survival time, dose: 25.0 mg/kg/injection, schedule: Q04DX003 (ip), vehicle: saline with Tween-80",110 % of control
c1ccc(CNc2nnnn2C2CCCCC2)cc1,T/C,[11],95 % of control
same,T/C,[12],91 % of control
same,T/C,[13],102 % of control
N#CCCCCCN=[N+]=[N-],T/C,"endpoint: mean survival time, dose: 75.0 mg/kg/injection, schedule: Q01DX001 (ip), vehicle: saline",98 % of control
same,T/C,"endpoint: mean survival time, dose: 150.0 mg/kg/injection, schedule: Q01DX001 (ip), vehicle: saline",101 % of control
NC(=O)N/N=C1/CCCC2CCCCC12 (configuration not stated),T/C,"endpoint: mean survival time, dose: 150.0 mg/kg/injection, schedule: Q04DX003 (ip), vehicle: saline with Tween-80",93 % of control
same,T/C,"endpoint: mean survival time, dose: 300.0 mg/kg/injection, schedule: Q04DX003 (ip), vehicle: saline with Tween-80",89 % of control
O=C1OC(O)C(Br)=C1Br (configuration not stated),T/C,"endpoint: mean survival time, dose: 100.0 mg/kg/injection, schedule: Q04DX002 (ip), vehicle: Klucel (hydroxypropylcellulose) (HPC)",105 % of control
same,T/C,"endpoint: mean survival time, dose: 200.0 mg/kg/injection, schedule: Q04DX002 (ip), vehicle: Klucel (hydroxypropylcellulose) (HPC)",91 % of control
same,T/C,"endpoint: mean survival time, dose: 400.0 mg/kg/injection, schedule: Q04DX002 (ip), vehicle: Klucel (hydroxypropylcellulose) (HPC)",89 % of control
OCCSc1c(Cl)c(Cl)c(Cl)c(Cl)c1Cl,T/C,[11],98 % of control
same,T/C,[12],95 % of control
same,T/C,[13],115 % of control
same,T/C,[22],90 % of control
CCOc1ccc(OCC)c(NC(=O)Nc2ccccc2OC)c1,T/C,[13],96 % of control
same,T/C,[21],96 % of control
same,T/C,[22],96 % of control
O=NN(CCCCl)C(=O)Nc1ccccc1,T/C,"endpoint: mean survival time, dose: 100.0 mg/kg/injection, schedule: Q01DX001 (ip), vehicle: carboxymethylcellulose (CMC)",96 % of control
same,T/C,"endpoint: mean survival time, dose: 200.0 mg/kg/injection, schedule: Q01DX001 (ip), vehicle: carboxymethylcellulose (CMC)",119 % of control
